Source: patent publication US20140335050A1, “METHODS, COMPOSITIONS, AND KITS FOR THE TREATMENT OF CANCER” (The General Hospital Corporation, priority 2011, published 2014)

How the values were obtained:
A375 melanoma cell line = assay: Antibody staining and flow cytometry (intracellular Melan-A/MART-1, gp100, TRP-2; surface MHC Class I); assay type: cell-based, human
Procedure: (§1) Cells were fixed with 1% formaldehyde, permeabilized with 0.1% saponin, stained with monoclonal antibodies to melanocyte antigens. Antibodies were obtained with specificity for: MART-1 from Vector Labs (Burlingame, Calif.); gp100 HMB45 from DakoCytomation (Carpinteria, Calif.) and then visualized with goat anti-mouse FITC-conjugated secondary antibody from Invitrogen (Fredrick, Md.). The level of EGFP was determined by flow cytometry of unfixed cells that were washed and resuspended in 1×PBS.
(§2) Cells were plated at a density of 1×10^5 in 1 ml of medium in a 24-well plate and cultured for varying times as indicated in results. […] After incubation, cells were collected by trypsinization and then evaluated by flow cytometry.
(§3) Intracellular staining and flow cytometric analyses of cytoplasmic Melan-A/MART-1, and gp100 expression were performed as described previously. Cells were fixed with 1% formaldehyde, permeabilized with 0.1% saponin, stained with monoclonal antibodies to melanocyte antigens. Antibodies were obtained with specificity for: Melan-A/MART-1 from Vector Labs (Burlingame, Calif.); gp100/HMB45 from DakoCytomation (Carpinteria, Calif.) and then visualized with goat anti-mouse FITC-conjugated secondary antibody from Invitrogen (Frederick, Md.). The level of EGFP was determined by flow cytometry of unfixed cells washed and resuspended in 1×PBS. Surface staining of MHC Class I was carried out using the antibody W6/32 on cells harvested with Cell Stripper from MediaTech Inc. (Manassas, Va.) and carried out on ice.
(§4) Cell were seeded at 1×10^6 cells in a T25 flask with 10 ml of media for the 4 day IFN-beta pre-treatments. Cells were then harvested and plated in 24 well plate at 1×10^5 cells per well in 1 ml of media for 3 day treatments.
(§5) For surface staining of HLA Class I and II antigens, cells were harvested using CellStripper™ from Mediatech (Manassas, Va.). All staining steps were performed on ice. Following a first incubation with antibody to Class I (W6/32) or Class II (L243) for 30 minutes. Stained cells were washed twice with cold PBS and then stained with a goat anti-mouse FITC secondary antibody to allow for quantitative analysis by flow cytometry. For evaluation of cytoplasmic antigens, including Melan-A/MART-1 and gp100, cells were first fixed in paraformaldehyde and permeabilized with saponin as previously described. Staining for cytoplasmic antigens was carried out at room temperature (22° C.).

MUX melanoma cell line = assay: as above; assay type: cell-based, human; details: MUX
Procedure: as §1, §2, §3, §4, §5

MU89 melanoma cell line = assay: Antibody staining and flow cytometry (intracellular Melan-A/MART-1, gp100, TRP-2; surface MHC Class I/II); assay type: cell-based, human; details: MU89
Procedure: as §1, §2, §3, §4, §5

[1] = system: B16 murine melanoma cell line; assay: Antibody staining and flow cytometry (intracellular gp100, TRP-2; surface Class I with H2kb antibody); assay type: cell-based, mouse; details: 3 days, 17-AEP 0.5, PU-H71 0.15, CCT018159 2.5 μg/ml
Excerpt: To further evaluate enhancement of immune recognition of cancer cells by inhibition of Hsp90 function, it was shown that a total of twelve different Hsp90 inhibitors were active in several molecular and cellular assays on a series of cell lines, including eleven human melanomas, the murine B16 melanoma, and two human gliomas. […] The melanomas all express varying levels of differentiation antigens Melan-A/MART-1, gp100 and TRP-2, as well as the MHC-Class I antigen (as evidenced by W6/32 antibody staining) that is required for T cell recognition of the tumor cells. Each of these antigens is enhanced by all of the Hsp90 inhibitors. […] Similar to the human counterparts, the B16 mouse tumor also can be induced to express enhanced antigen levels upon 3-day exposure to each of the Hsp90 inhibitors (Table 16). The mouse H-2 Class I antigen is likewise induced by the Hsp90 inhibitors.
General culture conditions for cell propagation and the origins of most of the melanoma cell lines have been previously described. Melanoma cells were cultured in DMEM with 10% FBS. The glioma cell lines U87 MG and U118 MG were obtained from the American Type Culture Collection (ATCC). The B16 murine melanoma cell line was provided by Dr. Andrew Hurwitz and has been previously described. The T cell receptor (TCR)-negative Jurkat T cell line derivative J.RT3-T3.5 was obtained from ATCC. The construction of the J.RT3-T3.5 cell line expressing a Melan-A/MART-1 specific TCR has been described previously. T cells were cultured in RPMI with 10% FBS. IFN-beta-1a (Avonex) was obtained from Biogen-Idec (Cambridge, Mass.) and reconstituted according to the manufacturer's recommendations. The Hsp90 inhibitor radicicol was purchased from A.G. Scientific (San Diego, Calif.). Novobiocin was ordered from BioMol (Plymouth Meeting, Pa.). 17-DMAG was obtained from LC laboratories (Woburn, Mass.). 17-AEP-AP was purchased from InVivoGen (San Diego, Calif.). […] Gedunin, CCT018159, and celastrol were purchased from Tocris (Ellisville, Mo.). Selleck Chemicals (Houston, Tex.) provided NVP-AUY922 and BIIB021.
Cells were plated at a density of 1×10^5 in 1 ml of medium in a 24-well plate and cultured for varying times as indicated in results. Typically, 3 days of culture in the presence of Hsp90 inhibitors was optimal for the functional studies performed. After incubation, cells were collected by trypsinization and then evaluated by flow cytometry.
as §3

U-87 MG glioma cell line = assay: Antibody staining and flow cytometry (intracellular gp100; surface MHC Class I); assay type: cell-based, human; details: U-87 MG; 3 days; IFN-beta 5000 Units/ml, 17-AEP 0.5, PU-H71 0.3, CCT018159 5.0 μg/ml
Procedure: as §1, §2, §3

[2] = 3 days, IFN-beta 5000 Units/ml, 17-AEP 0.5, PU-H71 0.15, CCT018159 2.5 μg/ml
[3] = 3 days, IFN-beta 5000 Units/ml, 17-AEP 1.0, PU-H71 0.3, CCT018159 10.0 μg/ml
[4] = 4 day IFN-β pre-treatment (5000 Units/ml), then 3 days with fresh IFN-β and the labelled HSP90 inhibitor (label IFN-β: no inhibitor), 17-AEP 1, PU-H71 0.3, CCT018159 10 mg/ml
[5] = 4 day IFN-β pre-treatment (5000 Units/ml), then 3 days without IFN-β with the labelled HSP90 inhibitor (label IFN-β: no inhibitor), 17-AEP 1, PU-H71 0.3, CCT018159 10 mg/ml

## CO[C@H]1/C=C\C=C(/C)C(=O)NC2=CC(=O)C(NCCN3CCCC3)=C(C[C@@H](C)C[C@H](OC)[C@H](O)[C@@H](C)/C=C(\C)[C@@H]1OC(N)=O)C2=O [17-AEP]
A375 melanoma cell line; [2]
  Class I, geometric mean of surface staining (W6/32): 67
  MART-1, geometric mean of intracellular staining: 11
  TRP-2, geometric mean of intracellular staining: 31
  gp100, geometric mean of intracellular staining: 22
A375 melanoma cell line; 4 day IFN-β pre-treatment (5000 Units/ml), then 3 days with fresh IFN-β and the labelled HSP90 inhibitor (label IFN-β: no inhibitor), 17-AEP 0.5, PU-H71 0.15, CCT018159 2.5
  MHC Class I, geometric mean of surface staining (W6/32): 144
A375 melanoma cell line; 4 day IFN-β pre-treatment (5000 Units/ml), then 3 days without IFN-β with the labelled HSP90 inhibitor (label IFN-β: no inhibitor), 17-AEP 0.5, PU-H71 0.15, CCT018159 2.5
  MHC Class I, geometric mean of surface staining (W6/32): 90
A375 melanoma cell line; single agent for 3 days, no IFN-β pre-treatment, IFN-β 5000 Units/ml, 17-AEP 0.5, PU-H71 […], CCT018159 2.5
  MHC Class I, geometric mean of surface staining (W6/32): 109
A375 melanoma cell line; three days, IFN-β 5000 Units/ml, 17-AEP 0.5, PU-H71 […], CCT018159 2.5
  MHC Class I, geometric mean of surface staining (W6/32): 67
MUX melanoma cell line; [3]
  Class I, geometric mean of surface staining (W6/32): 219
  MART-1, geometric mean of intracellular staining: 19
  TRP-2, geometric mean of intracellular staining: 48
  gp100, geometric mean of intracellular staining: 34
MUX melanoma cell line; [4]
  MHC Class I, geometric mean of surface staining (W6/32): 615
MUX melanoma cell line; [5]
  MHC Class I, geometric mean of surface staining (W6/32): 496
MUX melanoma cell line; single agent for 3 days, no IFN-β pre-treatment, IFN-β 5000 Units/ml, 17-AEP 1 μg/ml, PU-H71 0.3 μg/ml, CCT018159 10 μg/ml
  MHC Class I, geometric mean of surface staining (W6/32): 286
MU89 melanoma cell line; [3]
  Class I, geometric mean of surface staining (W6/32): 54
  MART-1, geometric mean of intracellular staining: 130
  TRP-2, geometric mean of intracellular staining: 144
  gp100, geometric mean of intracellular staining: 342
MU89 melanoma cell line; [4]
  MHC Class I, geometric mean of surface staining (W6/32): 227
MU89 melanoma cell line; [5]
  MHC Class I, geometric mean of surface staining (W6/32): 86
MU89 melanoma cell line; single agent for 3 days, no IFN-β pre-treatment, IFN-β 5000 Units/ml
  MHC Class I, geometric mean of surface staining (W6/32): 84
MU89 melanoma cell line; three days, IFN-β 5000 Units/ml
  MHC Class I, geometric mean of surface staining (W6/32): 54
[1]
  Class I, geometric mean of surface staining (H2kb): 13
  TRP-2, geometric mean of intracellular staining: 288
  gp100, geometric mean of intracellular staining: 420
U-87 MG glioma cell line
  Class I, geometric mean of surface staining (W6/32): 66
  gp100, geometric mean of intracellular staining: 51
